Assay results as given in article PMC11148080, “Ru(II)-based complexes containing 2-thiouracil derivatives suppress liver cancer stem cells by targeting NF-κB and Akt/mTOR signaling” (Cell Death Discovery, 2024).
Values joined by “and” are separate entries in the source; they are usually repeats but may differ in a detail not shown here. Equal entries are not always repeated.

Columns and labels:
HL-60 = test: Alamar Blue cytotoxicity; type: cell-based, human; details: for IC50: HL-60, 72 h
Description: The Alamar Blue assay was used to measure cell viability, as previously described. Adherent cells were seeded in 96-well plates at a density of 7 × 10^3 cells per well, and suspended cells were seeded at 3 × 10^4 cells per well. Drugs were added to each well after overnight incubation for adherent cells or immediately after seeding for suspension cells, and incubation continued for an additional 72 h. […] Four hours (for cell lines) or 24 h (for primary cultures) before the end of incubation, 20 μL of resazurin (30 μM) (Sigma‒Aldrich Co. St. Louis, MO, USA) was added to each well. The absorbance at 570 and 600 nm was measured using a SpectraMax 190 microplate reader (Molecular Devices, Sunnyvale, CA, USA).

4T1 = test: Alamar Blue cytotoxicity; type: cell-based, mouse; details: for IC50: 4T1, 72 h
Description: (§1) The Alamar Blue assay was used to measure cell viability, as previously described. Adherent cells were seeded in 96-well plates at a density of 7 × 10^3 cells per well, and suspended cells were seeded at 3 × 10^4 cells per well. Drugs were added to each well after overnight incubation for adherent cells or immediately after seeding for suspension cells, and incubation continued for an additional 72 h. The positive control included doxorubicin (Laboratorio IMA S.A.I.C., Buenos Aires, Argentina). Four hours (for cell lines) or 24 h (for primary cultures) before the end of incubation, 20 μL of resazurin (30 μM) (Sigma‒Aldrich Co. St. Louis, MO, USA) was added to each well. The absorbance at 570 and 600 nm was measured using a SpectraMax 190 microplate reader (Molecular Devices, Sunnyvale, CA, USA).

B16-F10 = test: Alamar Blue cytotoxicity; type: cell-based, mouse; details: for IC50: B16-F10, 72 h
Description: as §1

A-375 = test: Alamar Blue cytotoxicity; type: cell-based, human; details: for IC50: A-375, 72 h
Description: as §1

CAL 27 = test: Alamar Blue cytotoxicity; type: cell-based, human; details: for IC50: CAL 27, 72 h
Description: as §1

DU 145 = test: Alamar Blue cytotoxicity; type: cell-based, human; details: for IC50: DU 145, 72 h
Description: as §1

HCT116 = test: Alamar Blue cytotoxicity; type: cell-based, human; details: for IC50: HCT116, 72 h
Description: as §1

HepG2 = test: Alamar Blue cytotoxicity; type: cell-based, human; details: for IC50: HepG2, 72 h
Description: as §1

Jurkat = test: Alamar Blue cytotoxicity; type: cell-based, human; details: for IC50: Jurkat, 72 h
Description: as §1

K-562 = test: Alamar Blue cytotoxicity; type: cell-based, human; details: for IC50: K-562, 72 h
Description: as §1

KG-1a = test: Alamar Blue cytotoxicity; type: cell-based, human; details: for IC50: KG-1a, 72 h
Description: as §1

MCF-7 = test: Alamar Blue cytotoxicity; type: cell-based, human; details: for IC50: MCF-7, 72 h
Description: as §1

MDA-MB-231 = test: Alamar Blue cytotoxicity; type: cell-based, human; details: for IC50: MDA-MB-231, 72 h
Description: as §1

OVCAR-3 = test: Alamar Blue cytotoxicity; type: cell-based, human; details: for IC50: OVCAR-3, 72 h
Description: as §1

PANC-1 = test: Alamar Blue cytotoxicity; type: cell-based, human; details: for IC50: PANC-1, 72 h
Description: as §1

U-87 MG = test: Alamar Blue cytotoxicity; type: cell-based, human; details: for IC50: U-87 MG, 72 h
Description: as §1

PBMC = test: Alamar Blue cytotoxicity, noncancerous cells; type: cell-based, human; details: 72 h
Description: as §1, with “USA). […]” for “USA).”
PBMC heath peripheral blood mononuclear human primary cell […]
Then, the PBMCs were resuspended in RPMI 1640 or DMEM-F12 supplemented with 20% FBS and 1% antibiotics. The cells were plated at 5 × 10^5 cells/well. Concanavalin A (10 μg/mL, Sigma‒Aldrich) was used as a mitogen to trigger cell division in T lymphocytes and was added at the beginning of the culture. The Research Ethics Committee of the Oswaldo Cruz Foundation

BJ = test: Alamar Blue cytotoxicity, noncancerous cells; type: cell-based, human; details: 72 h
Description: as §1

MRC-5 = test: Alamar Blue cytotoxicity, noncancerous cells; type: cell-based, human; details: MRC-5, 72 h
Description: as §1

HepG2 cells = test: DNA content assay (internucleosomal DNA fragmentation, cell cycle); type: cell-based, human; details: for DNA fragmentation (sub-G0/G1): HepG2, 72 h, control 5.6%
Description: Internucleosomal DNA fragmentation and cell cycle distribution were determined by a DNA content assay. The cells were stained with PI using a solution containing 0.1% Triton X-100, 2 µg/mL PI, 0.1% sodium citrate, and 100 μg/mL RNAse (all from Sigma‒Aldrich) and incubated in the dark for 15 min at room temperature. For all flow cytometry analyses, cellular fluorescence was measured using a BD LSRFortessa cytometer, BD FACSDiva software (BD Biosciences) and FlowJo software 10 (FlowJo LLC; Ashland, OR, USA). A minimum of 10,000 events were obtained per sample for intracellular staining, and a minimum of 30,000 events per sample were acquired for cell surface protein staining. Doublets were removed using FSC-A vs FCS-H and SCC-A vs SCC-H. Cellular debris was excluded from the analysis.

`F[P-](F)(F)(F)(F)F.O=c1cc[nH]c([S][Ru+])n1.c1ccc(-c2ccccn2)nc1.c1ccc(P(c2ccccc2)c2ccccc2)cc1.c1ccc(P(c2ccccc2)c2ccccc2)cc1` [Complex 1, trans-[Ru(2TU)(PPh3)2(bipy)]PF6] was tested, and the IC50 (HL-60) was 5.71 µM, the IC50 (4T1) was 11.7 µM and the IC50 (B16-F10) was 3.04 µM. The IC50 (A-375) was 3.01 µM, the IC50 (CAL 27) was 2.66 µM and the IC50 (DU 145) was 7.6 µM. The IC50 (HCT116) was 4.74 µM, the IC50 (HepG2) was 3.49 µM and the IC50 (Jurkat) was 5.07 µM. For the same compound, the IC50 (K-562) was 6.77 µM, the IC50 (KG-1a) was 4.77 µM and the IC50 (MCF-7) was 9.21 µM. The IC50 (MDA-MB-231) was 2.62 µM, the IC50 (OVCAR-3) was 2.4 µM and 2.43 µM and the IC50 (PANC-1) was 9.45 µM. It also gave an IC50 (U-87 MG) of 3.53 µM, an IC50 (PBMC) of 14.2 µM and an IC50 (BJ) of 7 µM. The IC50 (MRC-5) was 17.7 µM, the “DNA fragmentation (sub-G0/G1)” value (HepG2 cells; 2 µM) was 12.3% and the “DNA fragmentation (sub-G0/G1)” value (HepG2 cells; 4 µM) was 26.7%. The “DNA fragmentation (sub-G0/G1)” value (HepG2 cells; 8 µM) was 43.1%.
`COc1cccc2c1C(=O)c1c(O)c3c(c(O)c1C2=O)C[C@@](O)(C(=O)CO)C[C@@H]3O[C@H]1C[C@H](N)[C@H](O)[C@H](C)O1` [Doxorubicin] showed an IC50 (HL-60; Homo sapiens) of 0.35 µM, a Selectivity index (HL-60; IC50 BJ/IC50 HL-60) of 5.29 and a Selectivity index (HL-60; IC50 MRC-5/IC50 HL-60) of 4.86. For the same compound, the Selectivity index (4T1; IC50 BJ/IC50 4T1) was 1.21, the Selectivity index (4T1; IC50 MRC-5/IC50 4T1) was 1.11 and the Selectivity index (4T1; IC50 PBMC/IC50 4T1) was 0.87. It also gave an IC50 (4T1; Mus musculus) of 1.53 µM, a Selectivity index (B16-F10; IC50 BJ/IC50 B16-F10) of 4.30 and a Selectivity index (B16-F10; IC50 MRC-5/IC50 B16-F10) of 3.95. The Selectivity index (B16-F10; IC50 PBMC/IC50 B16-F10) was 3.09, the IC50 (B16-F10; Mus musculus) was 0.43 µM and the IC50 (A-375; Homo sapiens) was 0.16 µM. It also gave a Selectivity index (A-375; IC50 BJ/IC50 A-375) of 11.56, a Selectivity index (A-375; IC50 MRC-5/IC50 A-375) of 10.63 and a Selectivity index (A-375; IC50 PBMC/IC50 A-375) of 8.31. The IC50 (CAL 27; Homo sapiens) was 0.11 µM, the Selectivity index (CAL 27; IC50 BJ/IC50 CAL 27) was 16.82 and the Selectivity index (CAL 27; IC50 MRC-5/IC50 CAL 27) was 15.45. The Selectivity index (CAL 27; IC50 PBMC/IC50 CAL 27) was 12.09, the IC50 (DU 145; Homo sapiens) was 0.24 µM and the Selectivity index (DU 145; IC50 BJ/IC50 DU 145) was 7.71. For the same compound, the Selectivity index (DU 145; IC50 MRC-5/IC50 DU 145) was 7.08, the Selectivity index (DU 145; IC50 PBMC/IC50 DU 145) was 5.54 and the IC50 (HCT116; Homo sapiens, HCT-116) was 0.86 µM. For the same compound, the Selectivity index (HCT116; IC50 BJ/IC50 HCT116) was 2.15, the Selectivity index (HCT116; IC50 MRC-5/IC50 HCT116) was 1.98 and the Selectivity index (HCT116; IC50 PBMC/IC50 HCT116) was 1.55. The IC50 (HepG2; Homo sapiens) was 0.32 µM, the Selectivity index (HepG2; IC50 BJ/IC50 HepG2) was 5.78 and the Selectivity index (HepG2; IC50 MRC-5/IC50 HepG2) was 5.31. For the same compound, the Selectivity index (HepG2; IC50 PBMC/IC50 HepG2) was 4.16, the IC50 (Jurkat; Homo sapiens) was 0.06 µM and the Selectivity index (Jurkat; IC50 BJ/IC50 Jurkat) was 30.83. It also gave a Selectivity index (Jurkat; IC50 MRC-5/IC50 Jurkat) of 28.33, a Selectivity index (Jurkat; IC50 PBMC/IC50 Jurkat) of 22.17 and an IC50 (K-562; Homo sapiens, K562) of 1.65 µM. For the same compound, the Selectivity index (K-562; IC50 BJ/IC50 K-562) was 1.12, the Selectivity index (K-562; IC50 MRC-5/IC50 K-562) was 1.03 and the Selectivity index (K-562; IC50 PBMC/IC50 K-562) was 0.81. The IC50 (KG-1a; Homo sapiens) was 0.07 µM, the Selectivity index (KG-1a; IC50 BJ/IC50 KG-1a) was 26.43 and the Selectivity index (KG-1a; IC50 MRC-5/IC50 KG-1a) was 24.29. It also gave a Selectivity index (KG-1a; IC50 PBMC/IC50 KG-1a) of 19.00, an IC50 (MCF-7; Homo sapiens, MCF7) of 2.28 µM and a Selectivity index (MCF-7; IC50 BJ/IC50 MCF-7) of 0.81. For the same compound, the Selectivity index (MCF-7; IC50 MRC-5/IC50 MCF-7) was 0.75, the Selectivity index (MCF-7; IC50 PBMC/IC50 MCF-7) was 0.58 and the IC50 (MDA-MB-231; Homo sapiens) was 0.43 µM. For the same compound, the Selectivity index (MDA-MB-231; IC50 BJ/IC50 MDA-MB-231) was 4.30, the Selectivity index (MDA-MB-231; IC50 MRC-5/IC50 MDA-MB-231) was 3.95 and the Selectivity index (MDA-MB-231; IC50 PBMC/IC50 MDA-MB-231) was 3.09. The IC50 (OVCAR-3; Homo sapiens) was 1.06 µM, the Selectivity index (OVCAR-3; IC50 BJ/IC50 OVCAR-3) was 1.75 and the Selectivity index (OVCAR-3; IC50 MRC-5/IC50 OVCAR-3) was 1.60. The Selectivity index (OVCAR-3; IC50 PBMC/IC50 OVCAR-3) was 1.25, the IC50 (PANC-1; Homo sapiens) was 1.11 µM and the Selectivity index (PANC-1; IC50 BJ/IC50 PANC-1) was 1.67. The Selectivity index (PANC-1; IC50 MRC-5/IC50 PANC-1) was 1.53, the Selectivity index (PANC-1; IC50 PBMC/IC50 PANC-1) was 1.20 and the IC50 (U-87 MG; Homo sapiens) was 0.52 µM. The Selectivity index (U-87 MG; IC50 BJ/IC50 U-87 MG) was 3.56, the Selectivity index (U-87 MG; IC50 MRC-5/IC50 U-87 MG) was 3.27 and the Selectivity index (U-87 MG; IC50 PBMC/IC50 U-87 MG) was 2.56. The IC50 (PBMC; Homo sapiens) was 1.33 µM, the IC50 (BJ; Homo sapiens) was 1.85 µM and the IC50 (MRC-5; Homo sapiens, MRC5) was 1.7 µM. For the same compound, the DNA fragmentation (HepG2 cells; HepG2, DOX 1 μM, positive control) was “also caused DNA fragmentation”.
`Cc1cc(=O)nc([S][Ru+])[nH]1.F[P-](F)(F)(F)(F)F.c1ccc(-c2ccccn2)nc1.c1ccc(P(c2ccccc2)c2ccccc2)cc1.c1ccc(P(c2ccccc2)c2ccccc2)cc1` [Complex 2, trans-[Ru(6m2TU)(PPh3)2(bipy)]PF6] showed an IC50 (HL-60) of 4.11 µM, an IC50 (4T1) of 4.52 µM and an IC50 (B16-F10) of 2.75 µM. The IC50 (A-375) was 2 µM, the IC50 (CAL 27) was 4.31 µM and the IC50 (DU 145) was 3.74 µM. For the same compound, the IC50 (HCT116) was 4.52 µM, the IC50 (HepG2) was 3.17 µM and the IC50 (Jurkat) was 4.94 µM. For the same compound, the IC50 (K-562) was 7.69 µM, the IC50 (KG-1a) was 3.77 µM and the IC50 (MCF-7) was 7.29 µM. The IC50 (MDA-MB-231) was 2.95 µM, the IC50 (OVCAR-3) was 1.6 µM and 1.62 µM and the IC50 (PANC-1) was 4.09 µM. For the same compound, the IC50 (U-87 MG) was 3.69 µM, the IC50 (PBMC) was 11.7 µM and the IC50 (BJ) was 7.8 µM and 7.79 µM. For the same compound, the IC50 (MRC-5) was 15.2 µM, the IC50 (MRC-5; listed as 2) was 15.2 µM and the “DNA fragmentation (sub-G0/G1)” value (HepG2 cells; 1.5 µM) was 18.6%. For the same compound, the “DNA fragmentation (sub-G0/G1)” value (HepG2 cells; 3 µM) was 39.1% and the “DNA fragmentation (sub-G0/G1)” value (HepG2 cells; 6 µM) was 72.9%.
